From patent US9051333B2, “6,7-dihydroimidazo [2,1-b] [1,3]oxazine bactericides” (OTSUKA PHARMACEUTICAL CO., LTD., priority 2011, dated 2015)
Values after ≈ are worked out from the molar mass of the structure shown.

Test system: Mycobacterium tuberculosis (M. tuberculosis kurono)
Experiment: Antimicrobial Assay (Agar Plate Dilution Method), M. tuberculosis kurono
Type: cell-based
Details: 336 h, M. tuberculosis kurono, 7H11 agar medium, cultured at 37° C. for 14 days, read-out: Minimum Inhibitory Concentration

SMILES: O=[N+]([O-])c1cn2c(n1)O[C@@H](COc1ccc(N3CCC(C4CCN(Cc5ccc(C(F)(F)F)cc5)CC4)CC3)cc1)CC2 [Example 415, (R)-2-nitro-7-{4-[1′-(4-trifluoromethylbenzyl)-4,4′-bipiperidin-1-yl]phenoxymethyl}-6,7-dihydro-5H-imidazo[2,1-b][1,3]oxazine]
- MIC: 1.5 ng/mL (≈ 0.0025 µM)

SMILES: O=[N+]([O-])c1cn2c(n1)O[C@H](COc1ccc(-c3ccc(CN4CCC(Oc5ccc(OC(F)(F)F)cc5)CC4)cc3)cc1)CC2 [Example 282, (S)-2-nitro-7-{4′-[4-(4-trifluoromethoxyphenoxy)piperidin-1-ylmethyl]biphenyl-4-yloxymethyl}-6,7-dihydro-5H-imidazo[2,1-b][1,3]oxazine]
- MIC: 6 ng/mL (≈ 0.00961 µM)

SMILES: O=[N+]([O-])c1cn2c(n1)O[C@@H](COc1ccc(N3CCC(Oc4ccc(SC(F)(F)F)cc4)CC3)cc1)CC2 [Example 446, (R)-2-nitro-7-{4-[4-(4-trifluoromethylsulfanylphenoxy)piperidin-1-yl]phenoxymethyl}-6,7-dihydro-5H-imidazo[2,1-b][1,3]oxazine]
- MIC: 3 ng/mL (≈ 0.00545 µM)

SMILES: O=[N+]([O-])c1cn2c(n1)OC(COc1ccc(-c3coc(COc4ccc(OC(F)(F)F)cc4)n3)cc1)CC2 (stereo not shown) [Example 53, 2-nitro-7-{4-[2-(4-trifluoromethoxyphenoxymethyl)oxazol-4-yl]phenoxymethyl}-6,7-dihydro-5H-imidazo[2,1-b][1,3]oxazine]
- MIC: 100 ng/mL (≈ 0.188 µM)

SMILES: O=[N+]([O-])c1cn2c(n1)OC(COc1ccc(-c3csc(-c4ccc(OC(F)(F)F)cc4)n3)cc1)CC2 (stereo not shown) [Example 56, 2-nitro-7-{4-[2-(4-trifluoromethoxyphenyl)thiazol-4-yl]phenoxymethyl}-6,7-dihydro-5H-imidazo[2,1-b][1,3]oxazine]
- MIC: 12 ng/mL (≈ 0.0231 µM)

SMILES: O=[N+]([O-])c1cn2c(n1)OC(COc1ccc3c(c1)CCCN3CCCOc1ccc(OC(F)(F)F)cc1)CC2 (stereo not shown) [Example 143, 6-(2-nitro-6,7-dihydro-5H-imidazo[2,1-b][1,3]oxazin-7-ylmethoxy)-1-[3-(4-trifluoromethoxyphenoxy)propyl]-1,2,3,4-tetrahydroquinoline]
- MIC: 100 ng/mL (≈ 0.182 µM)

SMILES: O=[N+]([O-])c1cn2c(n1)O[C@@H](COc1ccc(N3CCN(CC4CCC(C(F)(F)F)CC4)CC3)cc1)CC2 (stereo partly drawn) [Example 414, (R)-2-nitro-7-{4-[4-(4-trifluoromethyl-cyclohexylmethyl)piperazin-1-yl]phenoxymethyl}-6,7-dihydro-5H-imidazo[2,1-b][1,3]oxazine]
- MIC: 6 ng/mL (≈ 0.0115 µM)

SMILES: O=[N+]([O-])c1cn2c(n1)OC(COc1ccc(N3CCC(Oc4ccc(OC(F)(F)F)cc4)CC3)c(F)c1)CC2 (stereo not shown) [Example 147, 7-{3-fluoro-4-[4-(4-trifluoromethoxyphenoxy)piperidin-1-yl]phenoxymethyl}-2-nitro-6,7-dihydro-5H-imidazo[2,1-b][1,3]oxazine]
- MIC: 50 ng/mL (≈ 0.0905 µM)

SMILES: O=[N+]([O-])c1cn2c(n1)OC(COc1ccc(N3CCC(CCOc4ccc(OC(F)(F)F)cc4)CC3)nc1)CC2 (stereo not shown) [Example 79, 2-nitro-7-(6-{4-[2-(4-trifluoromethoxyphenoxy)ethyl]piperidin-1-yl}pyridin-3-yloxymethyl)-6,7-dihydro-5H-imidazo[2,1-b][1,3]oxazine]
- MIC: 12 ng/mL (≈ 0.0213 µM)

SMILES: O=[N+]([O-])c1cn2c(n1)O[C@@H](COc1ccc(N3CCC(CCCc4ccc(C(F)(F)F)cc4)CC3)cc1)CC2 [Example 400, (R)-2-nitro-7-(4-{4-[3-(4-trifluoromethylphenyl)propyl]piperidin-1-yl}phenoxymethyl)-6,7-dihydro-5H-imidazo[2,1-b][1,3]oxazine]
- MIC: ≤ 0.4 ng/mL

SMILES: C[C@@H]1CN(Cc2ccc(Oc3ccc(OC(F)(F)F)cc3)cc2)CCN1c1ccc(OC[C@H]2CCn3cc([N+](=O)[O-])nc3O2)cc1 [Example 335, (R)-7-(4-{(R)-2-methyl-4-[4-(4-trifluoromethoxyphenoxy)benzyl]piperazin-1-yl}phenoxymethyl)-2-nitro-6,7-dihydro-5H-imidazo[2,1-b][1,3]oxazine]
- MIC: 1.5 ng/mL (≈ 0.00235 µM)

SMILES: CC1(COc2ccc(N3CCN(C/C=C/c4ccc(OC(F)(F)F)cc4)CC3)cc2)CCn2cc([N+](=O)[O-])nc2O1 (stereo not shown) [Example 411, 7-methyl-2-nitro-7-(4-{4-[(E)-3-(4-trifluoromethoxyphenyl)allyl]piperazin-1-yl}phenoxymethyl)-6,7-dihydro-5H-imidazo[2,1-b][1,3]oxazine]
- MIC: 6 ng/mL (≈ 0.0105 µM)

SMILES: O=[N+]([O-])c1cn2c(n1)OC(COc1ccc(N3CCN(CCCc4ccc(Oc5ccc(OC(F)(F)F)cc5)cc4)CC3)cc1)CC2 (stereo not shown) [Example 64, 2-nitro-7-[4-(4-{3-[4-(4-trifluoromethoxyphenoxy)phenyl]propyl}piperazin-1-yl)phenoxymethyl]-6,7-dihydro-5H-imidazo[2,1-b][1,3]oxazine]
- MIC: ≤ 6 ng/mL

SMILES: O=[N+]([O-])c1cn2c(n1)O[C@@H](COc1ccc(OC3CCN(Cc4ccc(OCc5ccc(OC(F)(F)F)cc5)cc4)CC3)cc1)CC2 [Example 206, (R)-2-nitro-7-(4-{1-[4-(4-trifluoromethoxybenzyloxy)benzyl]piperidin-4-yloxy}phenoxymethyl)-6,7-dihydro-5H-imidazo[2,1-b][1,3]oxazine]
- MIC: ≤ 1.5 ng/mL

SMILES: O=[N+]([O-])c1cn2c(n1)O[C@H](COc1ccc(N3CCC(Cc4ccc(OCc5ccc(C(F)(F)F)cc5)cc4)CC3)cc1)CC2 [Example 254, (S)-2-nitro-7-(4-{4-[4-(4-trifluoromethylbenzyloxy)benzyl]piperidin-1-yl}phenoxymethyl)-6,7-dihydro-5H-imidazo[2,1-b][1,3]oxazine]
- MIC: 0.8 ng/mL (≈ 0.00128 µM)

SMILES: CN(c1ccc(OC(F)(F)F)cc1)C1CCN(c2ccc(OC[C@H]3CCn4cc([N+](=O)[O-])nc4O3)cc2)CC1 [Example 90, N-methyl-N-{1-[4-((R)-2-nitro-6,7-dihydro-5H-imidazo[2,1-b][1,3]oxazin-7-ylmethoxy)phenyl]piperidin-4-yl}-N-(4-trifluoromethoxyphenyl)amine]
- MIC: 12 ng/mL (≈ 0.0219 µM)

SMILES: CC(C)(c1ccc(OCc2ccc(C(F)(F)F)cc2)cc1)N1CCN(c2ccc(OC[C@H]3CCn4cc([N+](=O)[O-])nc4O3)cc2)CC1 [Example 490, (R)-7-[4-(4-{1-methyl-1-[4-(4-trifluoromethylbenzyloxy)phenyl]ethyl}piperazin-1-yl)phenoxymethyl]-2-nitro-6,7-dihydro-5H-imidazo[2,1-b][1,3]oxazine]
- MIC: 0.8 ng/mL (≈ 0.00123 µM)

SMILES: COC1(c2ccc(C(F)(F)F)cc2)CCN(c2ccc(OC[C@H]3CCn4cc([N+](=O)[O-])nc4O3)cc2)CC1 [Example 471, (R)-7-{4-[4-methoxy-4-(4-trifluoromethylphenyl)piperidin-1-yl]phenoxymethyl}-2-nitro-6,7-dihydro-5H-imidazo[2,1-b][1,3]oxazine]
- MIC: 12 ng/mL (≈ 0.0225 µM)

SMILES: O=[N+]([O-])c1cn2c(n1)O[C@@H](COc1ccc(N3CCN(C/C=C/c4ccc(C(F)(F)F)cc4)CC3)cc1)CC2 [Example 372, (R)-2-nitro-7-(4-{4-[(E)-3-(4-trifluoromethylphenyl)allyl]piperazin-1-yl}phenoxymethyl)-6,7-dihydro-5H-imidazo[2,1-b][1,3]oxazine]
- MIC: 6 ng/mL (≈ 0.011 µM)

SMILES: O=[N+]([O-])c1cn2c(n1)O[C@@H](COc1ccc(N3CCC(CCCOc4cccc(C(F)(F)F)c4)CC3)cc1)CC2 [Example 395, (R)-2-nitro-7-(4-{4-[3-(3-trifluoromethylphenoxy)propyl]piperidin-1-yl}phenoxymethyl)-6,7-dihydro-5H-imidazo[2,1-b][1,3]oxazine]
- MIC: 3 ng/mL (≈ 0.00535 µM)

SMILES: O=[N+]([O-])c1cn2c(n1)O[C@@H](COc1ccc(N3CCN(Cc4ccc(OCc5ccc(C(F)(F)F)cc5)cc4)CC3)cc1)CC2 [Example 182, (R)-2-nitro-7-(4-{4-[4-(4-trifluoromethylbenzyloxy)benzyl]piperazin-1-yl}phenoxymethyl)-6,7-dihydro-5H-imidazo[2,1-b][1,3]oxazine]
- MIC: ≤ 1.5 ng/mL

SMILES: O=[N+]([O-])c1cn2c(n1)O[C@@H](COc1ccc3nc(OCc4ccc(OC(F)(F)F)cc4)ccc3c1)CC2 [Example 153, 6-((R)-2-nitro-6,7-dihydro-5H-imidazo[2,1-b][1,3]oxazin-7-ylmethoxy)-2-(4-trifluoromethoxybenzyloxy)quinoline]
- MIC: 24 ng/mL (≈ 0.0465 µM)

SMILES: O=[N+]([O-])c1cn2c(n1)O[C@@H](COc1ccc3c(c1)CCN(Cc1ccc(OCc4ccc(C(F)(F)F)cc4)cc1)C3)CC2 [Example 304, 6-((R)-2-nitro-6,7-dihydro-5H-imidazo[2,1-b][1,3]oxazin-7-ylmethoxy)-2-[4-(4-trifluoromethylbenzyloxy)benzyl]-1,2,3,4-tetrahydroisoquinoline]
- MIC: 12 ng/mL (≈ 0.0202 µM)

SMILES: O=[N+]([O-])c1cn2c(n1)O[C@@H](COc1ccc(-c3ccc(N4CCC(O)(C(F)(F)F)CC4)cc3)cc1)CC2 [Example 379, 1-[4′-((R)-2-nitro-6,7-dihydro-5H-imidazo[2,1-b][1,3]oxazin-7-ylmethoxy)biphenyl-4-yl]-4-trifluoromethylpiperidin-4-ol]
- MIC: 100 ng/mL (≈ 0.193 µM)

SMILES: O=[N+]([O-])c1cn2c(n1)O[C@@H](COc1ccc(N3CCC(Cc4ccc(OC(F)(F)F)cc4)CC3)cc1)CC2 [Example 383, (R)-2-nitro-7-{4-[4-(4-trifluoromethoxybenzyl)piperidin-1-yl]phenoxymethyl}-6,7-dihydro-5H-imidazo[2,1-b][1,3]oxazine]
- MIC: 3 ng/mL (≈ 0.00563 µM)

SMILES: O=[N+]([O-])c1cn2c(n1)OC(COc1ccc(N3CCN(Cc4ccc(OC(F)(F)F)cc4)CC3)cc1)CC2 (stereo not shown) [Example 3, 2-nitro-7-{4-[4-(4-trifluoromethoxybenzyl)piperazin-1-yl]phenoxymethyl}-6,7-dihydro-5H-imidazo[2,1-b][1,3]oxazine]
- MIC: 50 ng/mL (≈ 0.0937 µM)

SMILES: O=[N+]([O-])c1cn2c(n1)O[C@H](COc1ccc(N3CCN(Cc4ccc(NCc5ccc(C(F)(F)F)cc5)cc4)CC3)cc1)CC2 [Example 290, N-(4-{4-[4-((S)-2-nitro-6,7-dihydro-5H-imidazo[2,1-b][1,3]oxazin-7-ylmethoxy)phenyl]piperazin-1-ylmethyl}phenyl)-N-(4-trifluoromethylbenzyl)amine]
- MIC: 0.8 ng/mL (≈ 0.00128 µM)

SMILES: O=[N+]([O-])c1cn2c(n1)O[C@@H](COc1ccc(N3CCN(c4ccc(OCc5ccc(OC(F)(F)F)cc5)cc4)CC3)cc1)CC2 [Example 198, (R)-2-nitro-7-(4-{4-[4-(4-trifluoromethoxybenzyloxy)phenyl]piperazin-1-yl}phenoxymethyl)-6,7-dihydro-5H-imidazo[2,1-b][1,3]oxazine]
- MIC: ≤ 1.5 ng/mL
